Results on four compounds are retold here after US7294509B2, “Pre-adipose cell lines” (Nestec S.A., priority 2000, dated 2007).

Common to all, as to assay type: cell-based, human
Test [1] has as its system Chub-S7 cells. Kind of test: Adipocyte marker gene expression by real-time RT-PCR during Chub-S7 cell differentiation. Conditions: for LPL mRNA fold-increase / aP2 mRNA fold-increase: day 17 as compared to day 0, 1 μM Dex alone or with 1 μM BRL49653 from day 3. The method, then: Adipocyte differentiation of Chub-S7 cells was tested under serum-free culture conditions. To promote pre-adipocyte differentiation, confluent cells were incubated with a basal medium (see Material and Methods) supplemented with 500 μM IBMX and 1 μM Dex for the first 3 days, and 1 μM of a PPARγ agonist (BRL49653) and 1 μM Dex from day 3 to 17. This condition was compared to the basal medium alone or supplemented with Dex plus IBMX from day 0 to 3 and Dex alone from day 3 to 17. To determine whether Chub-S7 cells were able to differentiate, the expression of adipocyte markers was assessed, by real-time RT-PCR, at different time points during cellular maturation. These markers included i) transcriptional factors involved in adipogenesis such as peroxisome proliferator-activated receptor γ (PPARγ) and CAAT/enhancer binding protein α (C/EBPα), ii) genes involved in lipid metabolism such as lipoprotein lipase (LPL) and adipocyte fatty acid binding protein (aP2), and finally iii) adipocyte secreted factors such as adipsin and leptin.
Chub-S7 cells were cultured from day 0 to 17 in the presence of the basal medium as defined in Material and Methods (m), or in the basal medium with 1 μM Dex plus 500 μM IBMX from day 0 to 3 and dexamethasone from day 3 to 17 (●) or supplemented with 1 μM BRL49653 (▪). The arrow indicates the day from which BRL49653 was added to the medium. Relative gene expression was quantified by real-time RT-PCR. Data are the means±SEM of values obtained at least in four separate experiments. […] Top panels show representative RT-PCRs performed at a number of cycle defined according to the linear amplification of the genes (see Material and Methods).
Cells were grown in a mixture of DMEM/F12 media supplemented with 10% FBS, 2 mM glutamine, 100 U/ml penicillin/streptamycin until confluency. For differentiation, cells were washed with PBS and cultured with a serum-free medium consisting of a mixture of DMEM/F12 media supplemented with 15 mM NaHCO3, 17 μM D-panthotenic acid, 15 mM Hepes, 33 μM biotin, 10 μg/ml transferrin, 1 nM triiodothyronin, 850 nM insulin and 500 μg/ml fetuin. This medium, referred to “basal medium” was supplemented with 1 μM dexamethasone (Dex) and 500 μM IBMX from day 0 to 3. Dex was maintained alone or with 1 μM BRL49653 from day 3 to 17 in order to promote differentiation. As stated in Results, oleic acid (OA) complexed with bovine serum albumin (BSA; ratio OA-to-BSA: 5: 1) was added to the medium containing BRL49653 from day 10 to 17. Lipid accumulation in differentiated cells was visualized by Oil red O staining as previously described (22). All the experiments on Chub-S7 cell characterization were performed between passages 18 and 32 (69 to 122 population doublings).
RNAs from Chub-S7 cells cultured from day 0 to 17 were extracted using the NucleoSpin® Total RNA Purification System (Macherey-Nagel, Oensingen Switzerland). Reverse transcription was performed with an input of 10 μg of total RNA using the 1st strand cDNA synthesis kit for RT-PCR (AMV; Roche Biomedical, Basel, Switzerland) with oligo d(T)15 as primer. Real-time reverse transcription-polymerase chain reaction analyses were performed in a fluorescent temperature cycler (GeneAmp® PCR 5700 Sequence Detection System; Applied Biosystem) according to the recommendations of the manufacturer. Briefly, after initial denaturation at 50° C. for 2 min and 95° C. for 10 min, reactions were cycled 40 times using the following parameters for all genes studied: 95° C. for 15s, primer annealing and extension at 60° C. for 1 min. SYBR Green I fluorescence was detected at the end of each cycle to monitor the amount of PCR product formed during that cycle. Primers used for the amplification of cDNAs of interest were synthesized by Mycrosynth (Windisch, Switzerland).
Cycle to cycle fluorescence emission was monitored and quantified using the GenAmp software provided by Applied Biosystem. […]

The subject of test [2] is Chub-S7 cells. Briefly: Lipolysis (glycerol release) in differentiated Chub-S7 cells. To be noted: 1 μM isoproterenol, 1 h; day 17; cells differentiated with BRL49653. The method, then: Lipolytic capacity of differentiated cells was assessed by measuring glycerol release, after stimulation or not for 1 h with 1 μM isoproterenol (Iso), a non-specific β-adrenergic agonist. Cells were differentiated in the presence of BRL49653 alone.
A. Chub-S7 cells were differentiated in the presence of 1 μM Dex plus 500 μM IBMX from day 0 to 3 and dexamethasone plus 1 μM BRL49653 from day 3 to 17. Glycerol released in the medium was measured in the presence or in the absence of 1 μM isoproterenol. Data are the means of values obtained at least in four separate experiments. […] B. Chub-S7 cells were cultured from day 0 to 17 in the presence of the basal medium (m), or in the basal medium with 1 μM Dex plus 500 μM IBMX from day 0 to 3 and Dex from day3 to 17 (●) or supplemented with 1 μM BRL49653 (▪). Data are the means±SEM of values obtained at least in four separate experiments.
(iv) Glycerol-3-phosphate dehydrogenase activity and lipolysis measurements Glycerol-3-phosphate dehydrogenase (GPDH) activity measured at different times during the differentiation process of Chub-S7 cells was determined using the enzymatic assay previously described (23). Lipolysis was determined at day 17 after confluency. […] Glycerol released in the medium was measured using the glycerokinase enzymatic radiometric assay described by Bradley and Kaslow (24).

For test [3], the system named is Chub-S7 cells. Briefly: Triglyceride accumulation in differentiated Chub-S7 cells (Oil red O staining). Conditions: 100 μM OA complexed with BSA, day 10 to 17, in differentiation medium containing BRL49653. The method, then:
To study the ability of differentiated Chub-S7 cells to accumulate intracellular lipids, cells cultured for 17 days in the absence or in the presence of BRL49653 were fixed and stained with Oil-red O. Almost all the differentiated cells were able to accumulate at least one single lipid droplet and few of them presented large multilocular droplets (FIG. 10B).
Chub-S7 cells were grown in the presence of the basal medium with 1 μM dexamethasone plus 500 μM IBMX from day 0 to 3 and Dex from day 3 to 17 or supplemented with 1 μM BRL49653 alone or in the presence of 100 μM OA from day 10 to 17. At day 17, cells were fixed and triglycerides were visualized using the oil-red O staining. A: Staining of culture wells containing Chub-S7 cells differentiated under the conditions described above. B: Morphology of Chub-S7 cells differentiated with dexamethasone and BRL49653 or in the same medium supplemented with oleate (Magnitude 400×). Data are representative of at least 3 independent experiments.
Cells were grown in a mixture of DMEM/F12 media supplemented with 10% FBS, 2 mM glutamine, 100 U/ml penicillin/streptamycin until confluency. […]

Consider `CN(CCOc1ccc(CC2SC(=O)NC2=O)cc1)c1ccccn1` (centres unmarked) [BRL49653], for which, in test [1] (day 17, 1 μM BRL49653), the “leptin mRNA, higher in presence of BRL49653 compared to Dex alone” value was 2 fold. Moreover, in test [1], the “LPL mRNA fold-increase” value stood at 308 fold-increase and the “aP2 mRNA fold-increase” value came to 8372 fold-increase.
Turning to `C[C@@H]1C[C@H]2[C@@H]3CCC4=CC(=O)C=C[C@]4(C)[C@@]3(F)[C@@H](O)C[C@]2(C)[C@@]1(O)C(=O)CO` [Dex, Dexamethasone], in test [1], the “LPL mRNA fold-increase” value is 16 fold-increase and the “aP2 mRNA fold-increase” value worked out at 8 fold-increase.
For `CC(C)NCC(O)c1ccc(O)c(O)c1` (centres unmarked) [Iso, isoproterenol], the “increase in lipolysis (glycerol release)” value in test [2] is 40.5%.
With `CCCCCCCC/C=C\CCCCCCCC(=O)O` [OA, oleic acid], the “expression of LPL, C/EBPα, aP2, leptin and adipsin induced by BRL49653” value in test [1] (100 μM OA day 10 to 17, data not shown) is “did not affect”. For the same compound, the triglyceride content entry in test [3] is recorded as “dramatic increase”.
